Results from patent US10351500B2, “Method of using of dihydro-resveratrol or its stilbenoid derivatives and/or chemical variants as antimicrobial agents” (Hong Kong Baptist University, priority 2015, dated 2019).
Read-outs that look alike come from different tables or passages of the source.

Tests used:
[1] = test system: Streptococcus mutans; assay: anti-bacterial growth inhibition, S. mutans; assay type: cell-based; conditions: Streptococcus mutans; for inhibition at 25 µM: read-out: Inhibition rate (25 μM); for inhibition at 50 µM: read-out: Inhibition rate (50 μM); for inhibition at 100 µM: read-out: Inhibition rate (100 μM)
Description: (§1) Evaluation of anti-bacterial activity. In a single well of the 96-well microplate, 10 μL of the testing compound is added into 190 μL of growth medium growth medium (BBL™ Brain Heart Infusion) containing an overnight culture of Streptococcus mutans or Streptococcus sobrinus at a density of approximately 5×10^5 CFU. The testing compounds include dihydro-resveratrol and DR1 to DR11. Wells incubated with 10 μL 0.5% DMSO only (i.e. no testing compound) are served as the experimental control of bacterial growth whilst those incubated with growth medium only (i.e. no bacteria) are served as the negative control. […] The percentage of growth inhibition of S. mutans by the different concentrations of testing compounds is shown in Table 12 whereas the percentage of growth inhibition of S. sobrinus is shown in Table 13. The images of S. mutans culture are captured post treatment of dihydro-resveratrol (100 μM) and DR8 (100 μM) when compared to the growth of experimental control and negative control (FIG. 31).

[2] = test system: Trichophyton mentagrophytes; assay: anti-fungal growth inhibition, T. mentagrophytes; assay type: cell-based; conditions: Trichophyton mentagrophytes, 168 h; for inhibition at 25 µM: read-out: Inhibition rate (25 μM); for inhibition at 50 µM: read-out: Inhibition rate (50 μM); for inhibition at 100 µM: read-out: Inhibition rate (100 μM)
Description: (§2) Evaluation of anti-fungal activity. In a single well of the 96-well microplate, 10 μL of the testing compound is added into 190 μL of growth medium (Difco™ YM) containing an overnight culture of Trichophyton rubrum or Trichophyton mentagrophytes at a density of approximately 5×10^5 CFU. The testing compounds include dihydro-resveratrol and DR1 to DR11. Wells incubated with 10 μL 0.5% DMSO only (i.e. no testing compound) are served as the experimental control of fungal growth whilst those incubated with growth medium only (i.e. no fungi) are served as the negative control. […] The percentage of growth inhibition of T. mentagrophytes by the different concentrations of testing compounds is shown in Table 10 whilst the percentage of growth inhibition of T. rubrum is shown in Table 11. The images of T. mentagrophytes culture are captured post treatment of dihydro-resveratrol (100 μM) and DR8 (100 μM) when compared to the growth of experimental control and negative control (FIG. 30).

[3] = test system: Trichophyton rubrum; assay: anti-fungal growth inhibition, T. rubrum; assay type: cell-based; conditions: Trichophyton rubrum, 168 h; for inhibition at 25 µM: read-out: Inhibition rate (25 μM); for inhibition at 50 µM: read-out: Inhibition rate (50 μM); for inhibition at 100 µM: read-out: Inhibition rate (100 μM)
Description: as §2

[4] = test system: Streptococcus sobrinus; assay: anti-bacterial growth inhibition, S. sobrinus; assay type: cell-based; conditions: Streptococcus sobrinus; for inhibition at 25 µM: read-out: Inhibition rate (25 μM); for inhibition at 50 µM: read-out: Inhibition rate (50 μM); for inhibition at 100 µM: read-out: Inhibition rate (100 μM)
Description: as §1

[5] = ABTS radical decolorization assay (antioxidant capacity); assay type: biochemical; conditions: 15 min, 734 nm
[6] = test system: HCT-116 human colorectal carcinoma xenograft tumor; assay: HCT-116 nude mouse xenograft model; assay type: in vivo, BALB/c nude mice; conditions: i.p. every other day, 5-FU 25 mg/kg, D-res 100 mg/kg
Source text: All animal studies were approved and performed according to Animal Care and Use Guidelines of the Animal Ethics Committee at Hong Kong Baptist University. BALB/c nude mice, SPF class, male, 6-8 weeks old, were purchased from BioLASCO, Taiwan. Before the xenograft experiment, the mice were acclimatized to SPF class laboratory conditions for a week.
HCT-116 cells in logarithmic growth phase were collected by trypsinization. After centrifugation and rinsing, cells were re-suspended in serum-free DMEM medium at 3×10^7 cells/mL. Nude mice were skin disinfected with 75% medical ethanol, subcutaneously injected with 100 μL of the HCT-116 cell suspension using a 25-G syringe to their left flank. The same procedure was repeated for the tumor cell injection to the right flank.
Seven days after tumor cell injection, 24 mice with tumor volumes of 32 mm^3 to 178 mm^3 were randomly assigned into 3 groups; the average initial tumor volumes in each group of mice were 78.04±7.76 mm^3 (vehicle, 8 mice), 78.76±9.40 mm^3 (5-FU, 8 mice), 78.01±7.75 mm^3 (D-res, 8 mice) respectively.
Vehicle solution: 2.5% Ethanol and Cremphor EL (1:1 v/v) dissolved in physiological saline.
5-FU solution: 5-FU powder was dissolved in 2.5% Ethanol and Cremphor EL to a concentration of 5 mg/mL.
D-res solution: Dihydro-resveratrol powder was dissolved in 2.5% Ethanol and Cremphor EL solution to a concentration of 20 mg/mL.
Vehicle group (n=8): 2.5% Ethanol and Cremphor EL solution was intraperitoneally injected every other day for 21 days.
5-FU group (n=8): 5-FU solution was given to mice at 25 mg/kg by intraperitoneal injection every other day for 21 days.
D-res group (n=8): D-res solution was given to mice at 100 mg/kg by intraperitoneal injection every other day for 21 days. This is equivalent to a dosage of no less than 8.13 mg/kg of bodily weight in human.

[7] = S. mutans, 25 μM, 10 hours, 30° C., OD 600 nm
[8] = S. mutans, 50 μM, 10 hours, 30° C., OD 600 nm
[9] = S. mutans, 100 μM, 10 hours, 30° C., OD 600 nm
[10] = T. mentagraphytes, 25 μM, one week, 30° C., OD 510 nm
[11] = T. mentagraphytes, 50 μM, one week, 30° C., OD 510 nm
[12] = T. mentagraphytes, 100 μM, one week, 30° C., OD 510 nm
[13] = T. rubrum, 25 μM, one week, 30° C., OD 510 nm
[14] = T. rubrum, 50 μM, one week, 30° C., OD 510 nm
[15] = T. rubrum, 100 μM, one week, 30° C., OD 510 nm
[16] = S. sobrinus, 25 μM, 10 hours, 30° C., OD 600 nm
[17] = S. sobrinus, 50 μM, 10 hours, 30° C., OD 600 nm
[18] = S. sobrinus, 100 μM, 10 hours, 30° C., OD 600 nm

Compound	inhibition at 25 µM [1, 7] [%]	inhibition at 50 µM [1, 8] [%]	inhibition at 100 µM [1, 9] [%]	inhibition at 25 µM [2, 10] [%]	inhibition at 50 µM [2, 11] [%]	inhibition at 100 µM [2, 12] [%]	inhibition at 25 µM [3, 13] [%]	inhibition at 50 µM [3, 14] [%]	inhibition at 100 µM [3, 15] [%]	inhibition at 25 µM [4, 16] [%]	inhibition at 50 µM [4, 17] [%]	inhibition at 100 µM [4, 18] [%]	Trolox equivalent (mg), antioxidant capacity [5] [mg]	further results
O=C(Oc1ccc(CCc2cc(OC(=O)c3ccc(Cl)cc3)cc(OC(=O)c3ccc(Cl)cc3)c2)cc1)c1ccc(Cl)cc1 [DR5]	2.67	8.35	2.22	3.01	6.93	14.1	0.71	4.25	5.78	12.2	26.2	18.6	0	–
CCCC(=O)Oc1ccc(CCc2cc(OC(=O)CCC)cc(OC(=O)CCC)c2)cc1 [DR4]	6.64	3.99	6.35	6.03	10.4	32.6	11.2	16.6	36.1	7.35	20.6	18.1	94.277	–
CCCOc1ccc(CCc2cc(OCCC)cc(OCCC)c2)cc1 [DR2]	0.04	3.62	3.65	4.72	9.81	33.7	14.1	18.3	37.8	6.33	19.9	19	30.178	–
O=C(Oc1ccc(CCc2cc(OC(=O)C3CCCC3)cc(OC(=O)C3CCCC3)c2)cc1)C1CCCC1 [DR9]	0.68	6.36	8.39	2.19	14.7	25.9	7.05	2.57	1.5	14.3	0.13	9.87	0	–
C=CCOc1ccc(CCc2cc(OCC=C)cc(OCC=C)c2)cc1 [DR3]	4.18	2.61	7.05	4.64	4.77	20.1	4.55	4.25	22.3	11.7	24.2	21.1	119.325	–
O=C(Cc1ccccc1)Oc1ccc(CCc2cc(OC(=O)Cc3ccccc3)cc(OC(=O)Cc3ccccc3)c2)cc1 [DR10]	–	–	–	–	–	–	–	–	–	–	–	–	0	inhibition at 25 µM ([1]; 10 h): 3.42%; inhibition at 50 µM ([1]; 10 h): 3.56%; inhibition at 100 µM ([1]; 10 h): 2.44%; inhibition at 25 µM [2]: 3.14%; inhibition at 50 µM [2]: 12.6%; inhibition at 100 µM [2]: 20.9%; inhibition at 25 µM [3]: 8.53%; inhibition at 50 µM [3]: 6.36%; inhibition at 100 µM [3]: 10.7%; inhibition at 25 µM ([4]; 10 h): 13.8%; inhibition at 50 µM ([4]; 10 h): 11.3%; inhibition at 100 µM ([4]; 10 h): 15.8%
COc1ccc(C(=O)Oc2ccc(CCc3cc(OC(=O)c4ccc(OC)cc4)cc(OC(=O)c4ccc(OC)cc4)c3)cc2)cc1 [DR6]	6.52	4.36	5.96	3.33	8.01	21.6	5.81	2.49	20.9	5.99	15.7	7.54	0	–
O=c1[nH]cc(F)c(=O)[nH]1 [Compound 5-FU, fluorouracil, reference compound]	–	–	–	–	–	–	–	–	–	–	–	–	–	Tumor Volume (mm^3) ([6]; Day 1 (initial)): 78.76 ± 9.40 mm^3; Tumor Volume (mm^3) ([6]; Day 4): 128.05 ± 12.25 mm^3; Tumor Volume (mm^3) ([6]; Day 7): 187.75 ± 21.56 mm^3; Tumor Volume (mm^3) ([6]; Day 10): 286.6 ± 28.89 mm^3; Tumor Volume (mm^3) ([6]; Day 13): 419.1 ± 45.77 mm^3; Tumor Volume (mm^3) ([6]; Day 16): 489.8 ± 160.66 mm^3; Tumor Volume (mm^3) ([6]; Day 19): 514.17 ± 160.66 mm^3; Tumor Volume (mm^3) ([6]; Day 21): 583.6 ± 160.66 mm^3; Tumor Volume (mm^3) ([6]; Day 22): 655.69 ± 160.66 mm^3; Tumor weight ([6]; treated for 21 days): 0.68 ± 0.08 g
O=C(Oc1ccc(CCc2cc(OC(=O)c3ccccc3)cc(OC(=O)c3ccccc3)c2)cc1)c1ccccc1 [DR7]	10.1	1.55	2.48	3.79	0.44	18.6	3.06	6.17	11.6	6.33	14.2	12.5	0	–
